Data: publication PMC6201879, “N-substituted phenylbenzamides of the niclosamide chemotype attenuate obesity related changes in high fat diet fed mice” (PLoS ONE, 2018)
“Also recorded” adds a separate entry of the source. Like-named read-outs stand apart in the source and are kept apart here.

Experiments:
[1] = test system: carbonic anhydrase-III (CAIII); assay: Western blot of carbonic anhydrase III in liver of HFD-fed mice; details: HFD fed-DIO mice; 10mg/kg for 12 days; vs sham
[2] = test system: HEK293 cells stably transduced with the human OCT3 transporter; assay: Cellular oxygen consumption rate (OCR), MitoXpress Xtra; format: cell-based; details: HEK293 cells expressing human OCT3; for change in respiration / oxygen consumption rate (OCR): compared to DMSO control, 2 hours; for concentration dependence of OCR change: four concentrations
Description: Oxygen consumption rate experiments were performed by ZenBio, Inc (RTP, NC). HEK293 cells stably transduced with the human OCT3 transporter were plated in black-walled microclear plates (Greiner-BioOne) at 60,000 cells per well in growth medium. Cells were incubated overnight to allow attachment before growth medium was removed and replaced with 150μL of assay medium containing compound dilutions. Four concentrations of each compound were prepared and transferred to the empty wells. Control wells contained assay medium only or assay medium containing […] (FCCP) at 1μM. Ten μL of MitoXpress Xtra reagent was added to each test well and 100μL of pre-warmed mineral oil was overlaid in each well to create a seal. The plates were immediately read on a FLUOstar Omega (BMG) using dual read Time Resolved Fluorescence (TR-F) for 2 hours, with measurements taken every 2 minutes using 340nm and 650nm as excitation and emission wavelengths respectively. For lifetime analysis, two measurements per well were taken: 1) delay of 30μs, with a window of 30μs; and 2) delay of 70μs with a window of 30μs. Background TRF values were subtracted from all readings. A ratiometric analysis was performed to determine changes in the Lifetime fluorescence signal: Lifetime (μs)[T] = (D2-D1)/ln(W1/W2), where D is delay; W is fluorescence window value at each time point. Lifetime slopes were calculated using each Lifetime measurement over time. Data are presented as mean ± standard error (SE). The differences between the control (DMSO) and compound treated wells were analyzed using the Student’s t-test. A value of p≤0.05 was considered statistically significant. […]

[3] = test system: phospho-S6 ribosomal protein; assay: Western blot of phospho-S6 ribosomal protein in HEK293T cells; format: cell-based, human
PH5CH8 liver cells = assay: High-throughput hepatic de novo lipogenesis (DNL) assay, high content imaging of steatotic phenotype; format: cell-based, human; details: for IC50: Homo sapiens
[4] = test system: fatty acid synthase (FAS); assay: Western blot of fatty acid synthase in liver of HFD-fed mice; details: HFD fed-DIO mice; 10mg/kg for 12 days; vs sham
[5] = Body weight changes in HFD-fed mice; format: in vivo, mouse
Description: We next measured body weight changes in HFD-fed animals prior to treatment with niclosamide or phenylbenzamide derivatives and after 12 days, prior to sacrifice. During this time, all animals (including sham) lost some weight.
20-week old animals were treated IP with 500199 at 10 or 25mg/kg by IP over a time-course of 9 days. At day 0, 3, 6 and 9 animals were weighed and tissue samples were collected for standard histological scoring of hepatic steatosis and automated quantitative histomorphometric scoring.

p-AMPK Thr-172 = assay: Western blot of p-AMPK Thr-172 in liver of HFD-fed mice; details: HFD fed-DIO mice; 10mg/kg for 12 days; vs sham
[6] = test system: phospho-AMPK Thr-172 (p-AMPK); assay: Western blot of phospho-AMPK Thr-172 in HEK293T cells; format: cell-based, human; details: for phosphorylation of AMPK (p-AMPK Thr-172) by Western blot: 1 and 10μM, negatives re-screened at 5 and 20 μM, 3 hours
Description: AMPK is a metabolic sensor that maintains cellular energy supply. As validation of these changes in lipid metabolism and cellular respiration we evaluated phospho-AMPK Thr-172 (p-AMPK) levels by Western blot in HEK293 cells treated with the phenylbenzamide derivatives. Compounds were screened at 1 and 10μM using the known uncouplers niclosamide and FCCP as positive controls (Fig 4A). […] We concluded that compounds that had little effect on oxygen consumption rates also had little effect on phosphorylation of AMPK.

[7] = test system: Phosphorylated AMPK (Thr-172); assay: High-throughput phosphorylated AMPK (Thr-172) TR-FRET assay in HepG2 cells; format: cell-based, human; details: HepG2 TR-FRET dose response between 0.625 and 10 μM, 4 hours; also Western blot
Description: Phosphorylated AMPK (Thr-172) TR-FRET Assay Kit was purchased from CisBio (Bedford MA). HepG2 [HB-8065] cells were trypsinized, harvested and counted using Countess II FL automated cell counter (Thermo Fisher Scientific). Cells were then seeded in Poly-D-Lysine coated 96-well black optical plates at a concentration of 10,000 cells per well in 50μL growth medium. After 24-hours, the media was removed and replaced with 50μL of fresh growth media containing compounds. Five concentrations of each compound were prepared, ranging from 10 to 0.625 μM and applied to columns 2–11 of the cell plate. Control wells contained DMSO (column 1-minimum response control) or 500199 (column 12-maximum response control). The final DMSO concentration was 0.45%. Cells were cultured for 4 hours before cells were lysed in 50μL of lysis buffer for 30 minutes at room temperature according to assays protocol. Following lysis, 16μL of lysate was transferred to white 384 well small volume assay plate and 4μL of antibody dyes were added per assay protocol.
Following overnight incubation, quantitation was performed on a PHERAstar (BMG), using the HTRF protocol with an excitation wavelength of 337nm and emission wavelengths of 665nm and 620nm. The ratio between emission spectra (665/620) was assessed for each well individually and averaged for triplicate samples. Data are presented as mean ratio ± SE. The differences between the control (DMSO) and the compound treated wells were analyzed using two-way ANOVA and Dunnett’s post hoc test. A value of p<0.05 was considered to be significant.
Fig 5 Validation of AMPK pathway activation by phenylbenzamide derivatives in HepG2 cells. A) Cells were seeded at 10,000 cells per well 24 hours prior to treating cells with indicated concentration of compound or DMSO (CTL) for 4 hours. 16μL of cell lysate was incubated with HTRF phospho-AMPK detection reagents and fluorescence emission read at 665nm and 620nm using a PHERAstar platereader. The mean and standard deviation of the HTRF Ratio from three replicate wells is shown. The unstimulated (DMSO) and positive controls lysates are shown in green and red respectively.

[8] = Metabolic stability in mouse liver microsomes; format: in vitro ADME; details: 60 min
Description: (§1) Three experiments were performed with 1) 0.5mg/ml microsomes and 1mM NADPH, 2) 0.5mg/ml microsomes without NADPH and 3) 0.5mg/ml heat inactivated microsomes without NADPH in 100mM phosphate buffer, containing 5mM magnesium chloride. […] At the indicated time points, 50μl samples were removed and stopped by addition of 4 volumes of cold acetonitrile with internal standards, 100nM alprazolam, 200nM labetalol and 2μM ketoprofen. The samples were centrifuged at 3,220 g for 40 minutes and aliquots of 100μl were subsequently diluted with 100μl of ultra-pure water and analyzed by LC/MS/MS using a (Shimadzu corporation) LC system coupled to a Shimadzu Triple Quad 5500 mass spectrometer with an ESI interface. The LC system used a Waters XSelect HSS T3 C18, 2.5μm, 2.1 x 50 mm column eluted with one of two methods using mobile phases A (water, 0.1% formic acid) and B (acetonitrile, 0.1% formic acid). […] The Shimadzu Triple Quad 5500 MS was operated with the following parameters: Ion source: Turbo spray; Ionization mode: ESI; Scan type: MRM; Collision gas: 10 L/min; Curtain gas: 30 L/min; Nebulize gas: 50 L/min; Auxiliary gas: 50 L/min; Temperature: 500°C; Ionspray voltage: +5500 V (positive MRM). All experiments were performed in duplicate. Data were analyzed using Microsoft excel, and peak areas were determined from extracted ion chromatograms.

[9] = Metabolic stability in human liver microsomes; format: in vitro ADME
Description: as §1

[10] = PH5CH8 liver cells, 10-point dose response between 1μM and 1.9nM, read-out: IC50 (uM), inhibition of steatotic phenotype in DNL assay
[11] = S1 Table, SAR for N-Substituted Phenylbenzamides, read-out: IC50
[12] = S1 Table, SAR for N-Substituted Phenylbenzamides
[13] = S1 Table. SAR for N-Substituted Phenylbenzamides, read-out: IC50
[14] = S1 Table. SAR for N-Substituted Phenylbenzamides
[15] = 0.5mg/ml microsomes and 1mM NADPH
[16] = 0.5mg/ml microsomes without NADPH
[17] = heat inactivated microsomes without NADPH

| SMILES | change in respiration / oxygen consumption rate (OCR) [2] | concentration dependence of OCR change [2] | IC50 (PH5CH8 liver cells; [10]) [µM] | IC50 (PH5CH8 liver cells; [11]) [µM] | Active/Inactive (PH5CH8 liver cells; [12]) | phosphorylation of AMPK (p-AMPK Thr-172) by Western blot [6] | IC50 (PH5CH8 liver cells; [13]) [µM] | Active/Inactive (PH5CH8 liver cells; [14]) | phosphorylation of AMPK (Figs 5 and 4D) [7] | other results |
| --- | --- | --- | --- | --- | --- | --- | --- | --- | --- | --- |
| COC(=O)c1ccc(NC(=O)c2cc(C(C)(C)C)ccc2O)c(Cl)c1 [Compound 500199, Methyl 4-[(5-tert-butyl-2-hydroxybenzene)amido]-3-chlorobenzoate] | significant changes | dose dependent increase in OCR | 0.06 | 0.066 | Active | stimulated phosphorylation of AMPK |  |  |  | CAIII protein levels in liver [1]: reduced; phospho-S6 ribosomal protein [3]: inversely regulated; FAS protein levels in liver [4]: reduced; body weight change vs sham ([5]; 10mg/kg I.P daily for 12 days): lost significantly more weight; body weight vs sham ([5]; 10 or 25mg/kg IP over 9 days): no statistically significant difference; phosphorylation of AMPK at Thr-172 in liver (p-AMPK Thr-172): stimulated phosphorylation of AMPK at Thr-172; concentration at which phosphorylation of AMPK peaks ([6]; Western blot): 5 µM |
| O=C(Nc1ccc(Br)cc1Cl)c1cc(Cl)ccc1O [Compound 500832, N-(4-Bromo-2-chlorophenyl)-5-chloro-2-hydroxybenzamide] | significant changes | only significantly elevated at 1μM | 0.08 |  |  |  | 0.0203 | Active | stimulated phosphorylation of AMPK |  |
| N#Cc1ccc(NC(=O)c2cc(Cl)ccc2O)c(Cl)c1 [Compound 500833, 5-Chloro-N-(2-chloro-4-cyanophenyl)-2-hydroxybenzamide] | significant changes | only significantly elevated at 1μM | 0.04 |  |  |  | 0.043 | Active | stimulated phosphorylation of AMPK |  |
| COC(=O)c1ccc(NC(=O)c2cccc(C(C)(C)C)c2O)c(Cl)c1 [Compound 600489, Methyl 4-(3-tert-butyl-2-hydroxybenzamido)-3-chlorobenzoate] | no change in respiration; also recorded: no effect on oxygen consumption rate |  | 0.01 | 0.014 | Active | stimulated phosphorylation of AMPK only at the highest concentration |  |  |  | Remaining Percentage of 60 min (%), Mouse, Tested Sample [8, 15]: 2.7%; Remaining Percentage of 60 min (%), Mouse, Negative Control [8, 16]: 4.1%; Remaining Percentage of 60 min (%), Mouse, Heat-inactivated Control [8, 17]: 57.6%; Remaining Percentage of 60 min (%), Human, Tested Sample [9, 15]: 3.1%; Remaining Percentage of 60 min (%), Human, Negative Control [9, 16]: 3.8%; microsomal stability ([9]; HLM and MLM, 60 min): completely degraded; Remaining Percentage of 60 min (%), Human, Heat-inactivated Control [9, 17]: 66.6% |
| COC(=O)c1ccc(NC(=O)c2cc(C(F)(F)F)ccc2O)c(Br)c1 [Compound 600653, Methyl 4-(2-hydroxy-5-[trifluoromethyl]benzamido)-3-bromobenzoate] | significant changes | dose dependent increase in OCR | 0.27 | 0.267 | Active |  |  |  | stimulated phosphorylation of AMPK |  |
| COC(=O)c1ccc(NC(=O)c2cc(C(F)(F)F)ccc2O)c(C)c1 [Compound 600655, Methyl 4-(2-hydroxy-5-[trifluoromethyl]benzamido)-3-methylbenzoate] | significant changes | dose dependent increase in OCR | 0.03 | 0.00025 | Active |  |  |  | stimulated phosphorylation of AMPK |  |
